Assay results from patent US20240239788A1, “SMALL MOLECULE INHIBITORS OF KRAS G12D MUTANT” (Merck Sharp & Dohme LLC, priority 2021, published 2024).
Where a name gives a salt, the structure may show the parent alone. Read-outs that look alike come from different tables or passages of the source.

Key:
[1] = biological target: KRAS protein containing G12D mutation (Homo sapiens (Human), UniProt P01116, G12D); test: SOS-catalyzed nucleotide exchange assay (GNE), TR-FRET; format: biochemical; details: biotinylated KRAS G12D, SOS and GTP, 60-minute incubation
Description: Compounds are added to this complex and then after a 60-minute incubation time the mixture is treated with SOS and unlabeled GTP. Small molecule inhibitors stabilize the Bodipy-GDP complex whereas the untreated protein rapidly exchanges Bodipy-GDP for unlabeled GTP resulting in reduced TR-FRET signal.
This solution is referred to as biotinylated KRAS G12D stock solution.

[2] = system: AsPC-1 cells containing homozygous KRAS-G12D activating mutation; test: Cellular phospho-ERK assay with 10% FBS (Examples 107a-256); format: cell-based
Description: 5% CO2 for 2 hours. […] Assay plates were read on a EnVision Multimode Plate Reader (PerkinElmer) and the ratio of p-Erk vs total Erk in each well was used as the final readout.

[3] = Homo sapiens, ASPC1, 2 h, read-out: IC50 (nM) pERK (cell with FBS 10%), AsPC-1 cells, 10% fetal bovine serum, 2 hours, ratio of p-Erk vs total Erk
[4] = read-out: IC50 (nM) pERK (cell with FBS 10%), AsPC-1 cells, 10% fetal bovine serum, 2 hours, ratio of p-Erk vs total Erk

Sequence of KRAS protein containing G12D mutation (P01116 other isoform, or with tags, fused parts or gaps G12D (already in the parent)): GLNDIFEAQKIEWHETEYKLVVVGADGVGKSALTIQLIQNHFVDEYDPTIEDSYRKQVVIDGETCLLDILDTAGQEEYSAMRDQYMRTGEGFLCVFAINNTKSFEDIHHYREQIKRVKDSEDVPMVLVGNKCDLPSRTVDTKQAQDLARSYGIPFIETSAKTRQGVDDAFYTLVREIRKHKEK

SMILES	IC50 [1]	IC50 [2, 3]	IC50 [2, 4]	IC50 ([2]; read-out: IC50 (nM) pERK (cell with FBS 10%), AsPC-1 cells, 10% fetal bovine serum, 2 hours, ratio of p-Erk vs total Erk, TFA)
C#Cc1cccc2cc3[nH]ncc3c(-c3c(F)cc4c(N5C[C@H]6CC[C@@](C)(C5)N6)nc(OC[C@@]56CCCN5C[C@H](F)C6)nc4c3F)c12 [Ex. 195, 4-(6,8-difluoro-2-(((2R, 7aS)-2-fluorotetra-hydro-1H-pyrrolizin-7a(5H)-yl)methoxy)-4-((1S,5R)-1-methyl-3,8-diazabicyclo[3.2.1]-octan-3-yl)quinazolin-7-yl)-5-ethynyl-1H-benzo[f]indazole]	4.36 nM	79.6 nM		
Nc1nc2c(-c3c(Cl)cc4c(N5CC6CCC(C5)N6)nc(OC[C@@]56CCCN5C[C@H](F)C6)nc4c3F)c(F)cc(F)c2o1 (single isomer, unassigned) [Ex. 133a]	61.4 nM		3470 nM	
Oc1c(F)cc(Cl)c(Cl)c1-c1c(Cl)cc2c(N3C[C@H]4CC[C@@H](C3)N4)nc(OC[C@@]34CCCN3C[C@H](F)C4)nc2c1F [Ex. 199, 2-(4-((1R,5S)-3,8-diazabicyclo[3.2.1]-octan-3-yl)-6-chloro-8-fluoro-2-(((2R,7aS)-2-fluorotetrahydro-1H-pyrrolizin-7a(5H)-yl)-methoxy)quinazolin-7-yl)-3,4-dichloro-6-fluorophenol]	2620 nM	30000 nM		
Nc1cc(-c2c(Cl)cc3c(N4CC5CCC(C4)N5)nc(OC[C@@]45CCCN4C[C@H](F)C5)nc3c2F)c(C(F)(F)F)c(Cl)n1 (single isomer, unassigned) [Ex. 155b]	2.33 nM	144 nM		
COCCN(C)C[C@@]1(COc2nc(N3CC4CC[C@@](C)(C3)N4)c3cc(F)c(-c4c(C(F)(F)F)c(C)cc5[nH]ncc45)c(F)c3n2)CC1(F)F [Ex. 223, (1S,5R)-3-(2-(((R)-2,2-difluoro-1-(((2-methoxyethyl)(methyl)amino)-methyl)cyclopropyl)methoxy)-6,8-difluoro-7-(6-methyl-5-(trifluorometh-yl)-1H-indazol-4-yl)quinazolin-4-yl)-1-methyl-3,8-diazabicyclo[3.2.1]-ocan-8-ium 2,2,2-trifluoroacetate]	425 nM	27300 nM		
C#Cc1cccc2c(F)c(O)cc(-c3c(F)cc4c(N5C[C@H]6CC[C@@](C)(C5)N6)nc(OC[C@@]56CCCN5C[C@H](F)C6)nc4c3F)c12 [202b, 4-(6,8-difluoro-2-(((2R,7aS)-2-fluorotetrahydro-1H-pyrrolizin-7a(5H)-yl)methoxy)-4-((1S,5R)-1-methyl-3,8-diazabicyclo[3.2.1]octan-3-yl)quinazolin-7-yl)-5-ethynyl-1-fluoronaphthalen-2-ol]	3.94 nM	302 nM		
Cc1cc(N)nc(-c2c(F)cc3c(N4CC5CCC(C4)N5)nc(OC[C@@]45CCCN4C[C@H](F)C5)nc3c2F)c1C(F)(F)F (mixture of isomers) [Ex. 193, 6-(4-((1R,5S)-3,8-diazabicyclo[3.2.1]-octan-3-yl)-6,8-difluoro-2-(((2R,7aS)-2-fluorotetrahydro-1H-pyrrolizin-7a(5H)-yl)methoxy)quinazo-lin-7-yl)-4-methyl-5-(trifluoromethyl)pyr-idin-2-amine]	10.3 nM	187 nM		
C#Cc1cccc2cccc(-c3c(F)cc4c(N5CC6(C)CCC(C)(C5)N6)nc(OC[C@@]56CCCN5C[C@H](F)C6)nc4c3F)c12 (single isomer, unassigned) [Ex. 190a, TFA]	2510 nM			30000 nM
C[C@]12CC[C@H](CN(c3nc(OC[C@@]45CCCN4C[C@H](F)C5)nc4c(F)c(-c5nc(N)nc6cccc(Cl)c56)c(F)cc34)C1)N2 [Ex. 188, 5-chloro-6′,8′-difluoro-2′-(((2R,7aS)-2-fluoro-tetrahydro-1H-pyrrol-izin-7a(5H)-yl)meth-oxy)-4'-((1S,5R)-1-methyl-3,8-diaza-bicyclo[3.2.1]octan-3-yl)-[4,7′-biquinazolin]-2-amine]	3400 nM	30000 nM		
C[C@]12CCC(CN(c3nc(OC[C@]4(CN[C@@H]5CC[C@H](O)C5)CC4(F)F)nc4c(F)c(-c5cc(O)cc6cccc(Cl)c56)c(F)cc34)C1)N2 (single isomer, unassigned) [Ex. 219b]	627 nM		9380 nM	
N#Cc1c(N)sc2c(F)ccc(-c3c(F)cc4c(N5C[C@H]6CC[C@@H](C5)N6)nc(OC[C@@]56CCCN5C[C@H](F)C6)nc4c3F)c12 (single isomer, unassigned) [Ex. 144a]	2.03 nM		83.9 nM	
Oc1cc(-c2c(F)cc3c(N4CC5CCC(C4)N5)nc(OC[C@@]45CCCN4C[C@H](F)C5)nc3c2F)c2c(Cl)cccc2c1 (single isomer, unassigned) [Ex. 160a]	3.3 nM		882 nM	
Cc1cc2[nH]ncc2c(-c2c(F)cc3c(N4CC5CCC(C4)N5)nc(OC[C@@]45CCCN4C[C@H](F)C5)nc3c2F)c1OC(F)(F)Cl (single isomer, unassigned) [compound 253]	1.74 nM	111 nM		
CCC(=O)Oc1cc(-c2c(F)cc3c(N4CC5CC[C@@](C)(C4)N5)nc(OC[C@@]45CCCN4C[C@H](F)C5)nc3c2F)c2c(Cl)cccc2c1 (single isomer, unassigned) [Ex. 162b]	495 nM		2390 nM	
C#Cc1cccc2cccc(-c3c(F)cc4c(N5CC6CC[C@@](C)(C5)N6)nc(OC[C@@]56CCCN5C[C@H](F)C6)nc4c3F)c12 (single isomer, unassigned) [Ex. 211b]	7.41 nM	2010 nM		
Cc1cc(N)c(F)c(-c2c(F)cc3c(N4CC5CCC(C4)N5)nc(OC[C@@]45CCCN4C[C@H](F)C5)nc3c2F)c1C(F)(F)F (single isomer, unassigned) [Ex. 146a]	1.56 nM	185 nM		
CN(C)C[C@@]1(COc2nc(N3C[C@H]4CC[C@@](C)(C3)N4)c3cc(C#N)c(-c4cc(O)cc5ccccc45)c(F)c3n2)CC1(F)F [Ex. 136a, 2-(((R)-1-((dimethylamino)methyl)-2,2-difluorocyclopropyl)methoxy)-8-fluoro-7-(3-hydroxynaphthalen-1-yl)-4-((1S,5R)-1-methyl-3,8-diazabicyclo[3.2.]octan-3-yl)quinazoline-6-carbonitrile]	4.93 nM		645 nM	
C#Cc1cccc2cc(O)c(Cl)c(-c3c(F)cc4c(N5CC6CC[C@@](C)(C5)N6)nc(OC[C@@]56CCCN5C[C@H](F)C6)nc4c3F)c12 (single isomer, unassigned) [Ex. 143a]	0.86 nM		53.5 nM	
C#Cc1cccc2c(F)c(O)cc(-c3c(F)cc4c(N5C[C@H]6CC[C@@](C)(C5)N6)nc(OC[C@@]56CCCN5C[C@H](F)C6)nc4c3F)c12 [202a, 4-(6,8-difluoro-2-(((2R,7aS)-2-fluorotetrahydro-1H-pyrrolizin-7a(5H)-yl)methoxy)-4-((1.5R)-1-methyl-3,8-diazabicyclo[3.2.1]octan-3-yl)quinazolin-7-yl)-5-ethynyl-1-fluoronaphthalen-2-ol]	302 nM		11500 nM	
Nc1cc(Cl)c(C(F)(F)F)c(-c2c(Cl)cc3c(N4CC5CCC(C4)N5)nc(OC[C@@]45CCCN4C[C@H](F)C5)nc3c2F)n1 (single isomer, unassigned) [Ex. 154a]	1.1 nM	52.1 nM		
Cc1cc2[nH]ncc2c(-c2c(F)cc3c(N4C[C@H]5CC[C@@](C)(C4)N5)nc(OC[C@@]45CCCN4C[C@H](F)C5)nc3c2F)c1OC(F)(F)F (single isomer, unassigned) [Ex. 126a]	8.59 nM		1240 nM	
C[C@]12CCC(CN(c3nc(OCC4(CN5CC6CCC(C5)O6)CC4)nc4c(F)c(-c5cc(O)cc6cccc(Cl)c56)c(F)cc34)C1)N2 (single isomer, unassigned) [Ex. 208]	210 nM	30000 nM		
